In ChEMBL document CHEMBL1201862, “PubChem BioAssay data set” (2004):
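Briefly, cells in 96-well plates were exposed to five compound concentrations for 48 h, and endpoints were estimated by linear interpolation. Abbreviation: GI50, concentration required for 50% inhibition of growth.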 Calls of active or inactive are those of the source. No stated cut-off is given here; in the data, active = GI50 up to about 1.1 µM and inactive = higher.

Experiments:
Experiment in all cases: NCI-60 cell line screen, 48 h
[1] = system: A549
[2] = system: HCT-15
[3] = system: HT-29
[4] = system: IGROV-1
[5] = system: LOX IMVI
[6] = system: MOLT-4
[7] = system: NCI-H23
[8] = system: NCI-H460
[9] = system: OVCAR-5
[10] = system: RPMI-8226
[11] = system: RXF 393
[12] = system: SF-295
[13] = system: SK-MEL-28
[14] = system: SK-OV-3
[15] = system: SNB-75
[16] = system: UACC-257
[17] = system: UO-31
[18] = system: CAKI-1
[19] = system: CCRF-CEM
[20] = system: OVCAR-4

Row | SMILES | GI50 [1] | GI50 [2] [µM] | GI50 [3] | GI50 [4] | GI50 [5] | GI50 [6] | GI50 [7] | GI50 [8] | GI50 [9] | GI50 [10] | GI50 [11] | GI50 [12] | GI50 [13] | GI50 [14] | GI50 [15] | GI50 [16] | GI50 [17] | GI50 [18] | GI50 [19] | GI50 [20]
1 | COCCOCOC(C)(C)[C@H](CCO)O[Si](c1ccccc1)(c1ccccc1)C(C)(C)C | 6.32 µM (inactive) | 4.68 | 8.61 µM (inactive) | 9.14 µM (inactive) | 8.36 µM (inactive) | 3.54 µM (inactive) | 15.7 µM (inactive) | 5.15 µM (inactive) | 14.1 µM (inactive) | 6.17 µM (inactive) | 5.3 µM (inactive) | 5.74 µM (inactive) | 14.9 µM (inactive) | 12.5 µM (inactive) | 8.11 µM (inactive) | 8.77 µM (inactive) | 13 µM (inactive) |  |  | 
2 | O=C(NN1C(=O)CS(=O)(=O)C1c1ccc(C(F)(F)F)cc1)c1ccncc1 (stereo unspecified) | > 100 µM (inactive) | > 100 | > 100 µM (inactive) |  | > 100 µM (inactive) | > 100 µM (inactive) | > 100 µM (inactive) | > 100 µM (inactive) | > 100 µM (inactive) | > 100 µM (inactive) | > 100 µM (inactive) | > 100 µM (inactive) | > 100 µM (inactive) | > 100 µM (inactive) | > 100 µM (inactive) | > 100 µM (inactive) |  | > 100 µM (inactive) | > 100 µM (inactive) | > 100 µM (inactive)
3 | CN(C)C(CN)CC1=C(CC(CN)N(C)C)CCC1 (stereo unspecified) | > 100 µM (inactive) | > 100 | > 100 µM (inactive) | > 100 µM (inactive) | > 100 µM (inactive) | > 100 µM (inactive) | > 100 µM (inactive) | > 100 µM (inactive) | > 100 µM (inactive) | > 100 µM (inactive) | > 100 µM (inactive) | > 100 µM (inactive) | > 100 µM (inactive) | > 100 µM (inactive) | > 100 µM (inactive) | > 100 µM (inactive) | > 100 µM (inactive) | > 100 µM (inactive) | > 100 µM (inactive) | > 100 µM (inactive)
4 | CC1(C)N/C(=C\C=O)C(C)(C)N1O | > 100 µM (inactive) | > 100 | > 100 µM (inactive) | > 100 µM (inactive) | > 100 µM (inactive) | > 100 µM (inactive) | > 100 µM (inactive) | > 100 µM (inactive) | > 100 µM (inactive) | > 100 µM (inactive) | > 100 µM (inactive) | > 100 µM (inactive) | > 100 µM (inactive) | > 100 µM (inactive) |  | > 100 µM (inactive) | > 100 µM (inactive) | > 100 µM (inactive) | > 100 µM (inactive) | > 100 µM (inactive)
5 | COc1ccc(-c2c(C#N)c(NC(=S)NC(=O)c3ccccc3)nc3c2CCCC3)cc1OC | 52.4 µM (inactive) | > 100 | 58.6 µM (inactive) | 62.1 µM (inactive) | 49.7 µM (inactive) | 27 µM (inactive) | 67.9 µM (inactive) | 35 µM (inactive) | 98.2 µM (inactive) | 42 µM (inactive) | 18.3 µM (inactive) | 56.6 µM (inactive) | 61.4 µM (inactive) | > 100 µM (inactive) | 22.3 µM (inactive) | 46.6 µM (inactive) | 35.2 µM (inactive) | 49.5 µM (inactive) | 50.7 µM (inactive) | 45.4 µM (inactive)
6 | CC1(C)CCc2ccc(OCCC(=O)O)cc2O1 | > 100 µM (inactive) | > 100 | > 100 µM (inactive) | > 100 µM (inactive) | > 100 µM (inactive) | > 100 µM (inactive) | > 100 µM (inactive) | > 100 µM (inactive) | > 100 µM (inactive) | > 100 µM (inactive) |  | > 100 µM (inactive) |  | > 100 µM (inactive) | 83.4 µM (inactive) |  | > 100 µM (inactive) | > 100 µM (inactive) | > 100 µM (inactive) | > 100 µM (inactive)
7 | CCOC(=O)/C(O)=C1\C(=O)N(C)C(=O)C1c1ccc(OC)c(OC)c1 (stereo unspecified) | > 100 µM (inactive) | > 100 | > 100 µM (inactive) | > 100 µM (inactive) | > 100 µM (inactive) | > 100 µM (inactive) | > 100 µM (inactive) | > 100 µM (inactive) | > 100 µM (inactive) | > 100 µM (inactive) | > 100 µM (inactive) | > 100 µM (inactive) | > 100 µM (inactive) | > 100 µM (inactive) | > 100 µM (inactive) | > 100 µM (inactive) | > 100 µM (inactive) | > 100 µM (inactive) | > 100 µM (inactive) | > 100 µM (inactive)
